According to patent US9944624B2, “Substituted amino triazoles useful as human chitinase inhibitors” (OncoArendi Therapeutics S.A., priority 2015, dated 2018):
Each block holds one molecule with its values, some of them ahead of it.

Key:
recombinant human AMCase = recombinant human AMCase (Homo sapiens (Human), UniProt Q9BZP6); experiment: Human AMCase activity assay (fluorescent 4MU substrate); type: biochemical; conditions: citrate buffer pH 5.2, 37° C., 60 minutes; substrate 4-methylumbelliferyl B-D-N,N′-diacetylchitobioside hydrate; read-out: Activity on hAMCase, IC50
recombinant human AMCase, sequence (Q9BZP6 22-476): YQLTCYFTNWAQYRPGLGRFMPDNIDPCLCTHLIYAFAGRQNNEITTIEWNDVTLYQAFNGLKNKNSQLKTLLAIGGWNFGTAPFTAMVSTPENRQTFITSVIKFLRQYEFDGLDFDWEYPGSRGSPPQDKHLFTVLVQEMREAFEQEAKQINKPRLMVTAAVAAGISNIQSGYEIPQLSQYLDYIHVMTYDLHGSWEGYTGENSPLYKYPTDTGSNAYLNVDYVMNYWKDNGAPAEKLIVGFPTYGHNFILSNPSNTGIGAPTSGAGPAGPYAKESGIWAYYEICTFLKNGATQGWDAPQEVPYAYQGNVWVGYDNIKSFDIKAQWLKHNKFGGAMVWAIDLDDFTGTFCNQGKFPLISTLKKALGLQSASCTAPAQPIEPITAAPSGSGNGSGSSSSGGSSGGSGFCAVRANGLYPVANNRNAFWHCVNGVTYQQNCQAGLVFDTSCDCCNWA

recombinant human CHIT1 = recombinant human CHIT1 (Homo sapiens (Human), UniProt Q13231); experiment: Human CHIT1 activity assay (fluorescent 4MU substrate); type: biochemical; conditions: citrate buffer pH 5.2, 37° C., 60 minutes; substrate 4-methylumbelliferyl β-D-N,N′,N″-triacetylchitotriose; read-out: Activity on hCHIT1, IC50
recombinant human CHIT1, sequence (Q13231 22-466): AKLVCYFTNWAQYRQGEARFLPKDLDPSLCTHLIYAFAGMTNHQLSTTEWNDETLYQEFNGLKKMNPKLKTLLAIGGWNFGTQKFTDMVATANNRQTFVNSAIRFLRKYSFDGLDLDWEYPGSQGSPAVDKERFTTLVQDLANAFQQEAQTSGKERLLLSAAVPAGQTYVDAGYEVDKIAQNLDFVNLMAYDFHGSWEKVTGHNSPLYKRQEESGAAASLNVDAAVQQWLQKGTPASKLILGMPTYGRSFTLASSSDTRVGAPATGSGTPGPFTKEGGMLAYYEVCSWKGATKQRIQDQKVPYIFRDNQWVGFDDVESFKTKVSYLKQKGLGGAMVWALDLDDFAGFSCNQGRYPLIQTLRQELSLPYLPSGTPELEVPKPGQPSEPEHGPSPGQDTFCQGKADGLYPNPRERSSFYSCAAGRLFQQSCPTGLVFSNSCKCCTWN

- IC50 (recombinant human AMCase): < 100 nM
Structure (SMILES): Nc1nnc(N2CCC(N3CCOC[C@@H]3Cc3ccc(Cl)cc3)CC2)[nH]1 [Example 1, (S)-5-(4-(3-(4-chlorobenzyl)morpholino)piperidin-1-yl)-4H-1,2,4-triazol-3-amine]

- IC50 (recombinant human CHIT1): 100 to 1000 nM
Structure (SMILES): Nc1nnc(N2CCC(N3CCOCC3Cc3ccc(Cl)cc3)CC2)[nH]1 (centres unmarked) [Example 2, 5-(4-(3-(4-chlorobenzyl)morpholino)piperidin-1-yl)-4H-1,2,4-triazol-3-amine]

- IC50 (recombinant human AMCase): < 100 nM
Structure (SMILES): Nc1nnc(N2CCC(N3CCOC[C@@H]3Cc3ccc(Br)cc3)CC2)[nH]1 [Example 3, (S)-5-(4-(3-(4-bromobenzyl)morpholino)piperidin-1-yl)-4H-1,2,4-triazol-3-amine]

- IC50 (recombinant human AMCase): < 100 nM
Structure (SMILES): COC(C)(C)[C@H]1CN(C2CCN(c3nnc(N)[nH]3)CC2)[C@@H](Cc2ccc(Cl)cc2)CO1 [Example 14, 5-(4-((2R,5S)-5-(4-chlorobenzyl)-2-(2-methoxypropan-2-yl)morpholino)piperidin-1-yl)-4H-1,2,4-triazol-3-amine]

- IC50 (recombinant human AMCase): < 100 nM
Structure (SMILES): Nc1nnc(N2CCC(N3CCCC[C@@H]3Cc3ccc(Cl)cc3)CC2)[nH]1 [Example 15, (R)-5-(2-(4-chlorobenzyl)-[1,4′-bipiperidin]-1′-yl)-4H-1,2,4-triazol-3-amine]

- IC50 (recombinant human AMCase): < 100 nM
Structure (SMILES): Nc1nnc(N2CCC(N3CC(C(=O)O)CC[C@@H]3Cc3ccc(Cl)cc3)CC2)[nH]1 (stereo partly drawn) [Example 17, (6R)-1′-(5-amino-4H-1,2,4-triazol-3-yl)-6-(4-chlorobenzyl)-[1,4′-bipiperidine]-3-carboxylic acid]

- IC50 (recombinant human AMCase): < 100 nM
Structure (SMILES): CC1(C(=O)O)CC[C@H](Cc2ccc(Cl)cc2)N(C2CCN(c3nnc(N)[nH]3)CC2)C1 (stereo partly drawn) [Example 18, (6R)-1′-(5-amino-4H-1,2,4-triazol-3-yl)-6-(4-chlorobenzyl)-3-methyl-[1,4′-bipiperidine]-3-carboxylic acid]

- IC50 (recombinant human CHIT1): 10000 to 100000 nM
Structure (SMILES): Nc1nnc(N2CCC(N3CCCCC3C(O)c3ccc(Cl)cc3)CC2)[nH]1 (centres unmarked) [Example 21, (1′-(5-amino-4H-1,2,4-triazol-3-yl)-[1,4′-bipiperidin]-2-yl)(4-chlorophenyl)methanol]

- IC50 (recombinant human CHIT1): 1000 to 10000 nM
Structure (SMILES): C[C@H]1CN(C2CCN(c3nnc(N)[nH]3)CC2)[C@@H](Cc2ccc(Cl)cc2)CN1C [Example 27, 5-(4-((2S,5S)-2-(4-chlorobenzyl)-4,5-dimethylpiperazin-1-yl)piperidin-1-yl)-4H-1,2,4-triazol-3-amine]

- IC50 (recombinant human AMCase): < 100 nM
- IC50 (recombinant human CHIT1): 1000 to 10000 nM
Structure (SMILES): CN1C[C@H](Cc2ccc(Cl)cc2)N(C2CCN(c3nnc(N)[nH]3)CC2)C[C@@H]1CC1CCCCC1 [Example 32, 5-(4-((2S,5S)-2-(4-chlorobenzyl)-5-(cyclohexylmethyl)-4-methylpiperazin-1-yl)piperidin-1-yl)-4H-1,2,4-triazol-3-amine]

- IC50 (recombinant human AMCase): < 100 nM
- IC50 (recombinant human CHIT1): 1000 to 10000 nM
Structure (SMILES): CC(C)C[C@H]1CN(C2CCN(c3nnc(N)[nH]3)CC2)[C@@H](Cc2ccc(Cl)cc2)CN1C [Example 33, 5-(4-((2S,5S)-2-(4-chlorobenzyl)-5-isobutyl-4-methylpiperazin-1-yl)piperidin-1-yl)-4H-1,2,4-triazol-3-amine]

- IC50 (recombinant human AMCase): < 100 nM
Structure (SMILES): COC(=O)CN1C[C@H](Cc2ccc(Cl)cc2)N(C2CCN(c3nnc(N)[nH]3)CC2)C[C@@H]1C [Example 40, methyl 2-((2S,5S)-4-(1-(5-amino-4H-1,2,4-triazol-3-yl)piperidin-4-yl)-5-(4-chlorobenzyl)-2-methylpiperazin-1-yl)acetate]

- IC50 (recombinant human AMCase): < 100 nM
Structure (SMILES): C[C@H]1CN(C2CCN(c3nnc(N)[nH]3)CC2)[C@@H](Cc2ccc(Cl)cc2)CN1CC(=O)O [Example 41, 2-((2S,5S)-4-(1-(5-amino-4H-1,2,4-triazol-3-yl)piperidin-4-yl)-5-(4-chlorobenzyl)-2-methylpiperazin-1-yl)acetic acid]

- IC50 (recombinant human AMCase): < 100 nM
- IC50 (recombinant human CHIT1): 100 to 1000 nM
Structure (SMILES): CN1C[C@H](Cc2ccc(Cl)cc2)N(C2CCN(c3nnc(N)[nH]3)CC2)Cc2ccccc21 [Example 57, (S)-5-(4-(3-(4-chlorobenzyl)-1-methyl-2,3-dihydro-1H-benzo[e][1,4]diazepin-4(5H)-yl)piperidin-1-yl)-4H-1,2,4-triazol-3-amine]

- IC50 (recombinant human AMCase): < 100 nM
- IC50 (recombinant human CHIT1): 100 to 1000 nM
Structure (SMILES): Nc1nnc(N2CCC(N3Cc4cc(F)ccc4OC[C@@H]3Cc3ccc(Cl)cc3)CC2)[nH]1 [Example 60, (S)-5-(4-(3-(4-chlorobenzyl)-7-fluoro-2,3-dihydrobenzo[f][1,4]oxazepin-4(5H)-yl)piperidin-1-yl)-4H-1,2,4-triazol-3-amine]

- IC50 (recombinant human AMCase): < 100 nM
- IC50 (recombinant human CHIT1): 1000 to 10000 nM
Structure (SMILES): Nc1nnc(N2CCC(N3Cc4cc(Cl)ccc4OC[C@@H]3Cc3ccc(Cl)cc3)CC2)[nH]1 [Example 61, (S)-5-(4-(7-chloro-3-(4-chlorobenzyl)-2,3-dihydrobenzo[f][1,4]oxazepin-4(5H)-yl)piperidin-1-yl)-4H-1,2,4-triazol-3-amine]

- IC50 (recombinant human AMCase): < 100 nM
- IC50 (recombinant human CHIT1): 10000 to 100000 nM
Structure (SMILES): Nc1nnc(N2CCC(N3Cc4cc(Cl)cc(Cl)c4OC[C@@H]3Cc3ccc(Cl)cc3)CC2)[nH]1 [Example 62, (S)-5-(4-(7,9-dichloro-3-(4-chlorobenzyl)-2,3-dihydrobenzo[f][1,4]oxazepin-4(5H)-yl)piperidin-1-yl)-4H-1,2,4-triazol-3-amine]

The remaining lines, values behind:

Structure (SMILES): CCOC[C@H]1CN(C2CCN(c3nnc(N)[nH]3)CC2)[C@@H](Cc2ccc(Cl)cc2)CO1 [Example 11, 5-(4-((2R,5S)-5-(4-chlorobenzyl)-2-(ethoxymethyl)morpholino)piperidin-1-yl)-4H-1,2,4-triazol-3-amine]
- IC50 (recombinant human AMCase): < 100 nM

Structure (SMILES): CCOC(=O)C1CC[C@H](Cc2ccc(Cl)cc2)N(C2CCN(c3nnc(N)[nH]3)CC2)C1 (stereo partly drawn) [Example 16, ethyl (6R)-1′-(5-amino-4H-1,2,4-triazol-3-yl)-6-(4-chlorobenzyl)-[1,4′-bipiperidine]-3-carboxylate]
- IC50 (recombinant human AMCase): < 100 nM

Structure (SMILES): CO[C@H]1CN(C2CCN(c3nnc(N)[nH]3)CC2)[C@H]1Cc1ccc(Cl)cc1 [Example 22, 5-(4-((2S,3S)-2-(4-chlorobenzyl)-3-methoxyazetidin-1-yl)piperidin-1-yl)-4H-1,2,4-triazol-3-amine]
- IC50 (recombinant human CHIT1): 100 to 1000 nM

Structure (SMILES): Nc1nnc(N2CCC(N3C[C@@H](F)[C@@H]3Cc3ccc(Cl)cc3)CC2)[nH]1 [Example 23, 5-(4-((2S,3R)-2-(4-chlorobenzyl)-3-fluoroazetidin-1-yl)piperidin-1-yl)-4H-1,2,4-triazol-3-amine]
- IC50 (recombinant human CHIT1): 10000 to 100000 nM

Structure (SMILES): Nc1nnc(N2CCC(N3CCNC[C@@H]3Cc3ccc(Cl)cc3)CC2)[nH]1 [Example 26, (S)-5-(4-(2-(4-chlorobenzyl)piperazin-1-yl)piperidin-1-yl)-4H-1,2,4-triazol-3-amine]
- IC50 (recombinant human CHIT1): 1000 to 10000 nM

Structure (SMILES): CC(C)CN1CCN(C2CCN(c3nnc(N)[nH]3)CC2)[C@@H](Cc2ccc(Cl)cc2)C1 [Example 29, (S)-5-(4-(2-(4-chlorobenzyl)-4-isobutylpiperazin-1-yl)piperidin-1-yl)-4H-1,2,4-triazol-3-amine]
- IC50 (recombinant human CHIT1): 10000 to 100000 nM

Structure (SMILES): CN1C[C@H](Cc2ccc(Cl)cc2)N(C2CCN(c3nnc(N)[nH]3)CC2)C[C@@H]1Cc1ccc(Cl)cc1 [Example 31, 5-(4-((2S,5S)-2,5-bis(4-chlorobenzyl)-4-methylpiperazin-1-yl)piperidin-1-yl)-4H-1,2,4-triazol-3-amine]
- IC50 (recombinant human AMCase): < 100 nM
- IC50 (recombinant human CHIT1): 1000 to 10000 nM

Structure (SMILES): CO[C@H]1C[C@H](Cc2ccc(Cl)cc2)N(C2CCN(c3nnc(N)[nH]3)CC2)C1 [Example 46, 5-(4-((2S,4S)-2-(4-chlorobenzyl)-4-methoxypyrrolidin-1-yl)piperidin-1-yl)-4H-1,2,4-triazol-3-amine]
- IC50 (recombinant human CHIT1): < 100 nM

Structure (SMILES): CC1(O)C[C@H](Cc2ccc(Cl)cc2)N(C2CCN(c3nnc(N)[nH]3)CC2)C1 (stereo partly drawn) [Example 48, (5S)-1-(1-(5-amino-4H-1,2,4-triazol-3-yl)piperidin-4-yl)-5-(4-chlorobenzyl)-3-methylpyrrolidin-3-ol]
- IC50 (recombinant human AMCase): < 100 nM
- IC50 (recombinant human CHIT1): 100 to 1000 nM

Structure (SMILES): Nc1nnc(N2CCC(N3C[C@@H]4CCCN4C[C@@H]3Cc3ccc(Cl)cc3)CC2)[nH]1 [Example 49, 5-(4-((3S,8aS)-3-(4-chlorobenzyl)hexahydropyrrolo[1,2-a]pyrazin-2(1H)-yl)piperidin-1-yl)-4H-1,2,4-triazol-3-amine]
- IC50 (recombinant human AMCase): < 100 nM

Structure (SMILES): CO[C@@H]1C[C@H](Cc2ccc(Cl)cc2)N(C2CCN(c3n[nH]c(N)n3)CC2)C1 [Example 51, 3-(4-((2S,4R)-2-(4-chlorobenzyl)-4-methoxypyrrolidin-1-yl)piperidin-1-yl)-1H-1,2,4-triazol-5-amine]
- IC50 (recombinant human CHIT1): < 100 nM

Structure (SMILES): C=C1COC[C@H](Cc2ccc(Cl)cc2)N(C2CCN(c3nnc(N)[nH]3)CC2)C1 [Example 55, (S)-5-(4-(3-(4-chlorobenzyl)-6-methylene-1,4-oxazepan-4-yl)piperidin-1-yl)-4H-1,2,4-triazol-3-amine]
- IC50 (recombinant human AMCase): < 100 nM
- IC50 (recombinant human CHIT1): 100 to 1000 nM

Structure (SMILES): CN1C[C@H](Cc2ccc(Cl)cc2)N(C2CCN(c3nnc(N)[nH]3)CC2)Cc2cc(Cl)ccc21 [Example 58, (S)-5-(4-(7-chloro-3-(4-chlorobenzyl)-1-methyl-2,3-dihydro-1H-benzo[e][1,4]diazepin-4(5H)-yl)piperidin-1-yl)-4H-1,2,4-triazol-3-amine]
- IC50 (recombinant human AMCase): < 100 nM
- IC50 (recombinant human CHIT1): 100 to 1000 nM

Structure (SMILES): Nc1nnc(N2CCC(N3Cc4ccccc4OC[C@@H]3Cc3ccc(Cl)cc3)CC2)[nH]1 [Example 59, (S)-5-(4-(3-(4-chlorobenzyl)-2,3-dihydrobenzo[f][1,4]oxazepin-4(5H)-yl)piperidin-1-yl)-4H-1,2,4-triazol-3-amine]
- IC50 (recombinant human AMCase): < 100 nM
- IC50 (recombinant human CHIT1): 100 to 1000 nM

Structure (SMILES): Nc1nnc(N2CCC(N3Cc4ccncc4OC[C@@H]3Cc3ccc(Cl)cc3)CC2)[nH]1 [Example 63, (S)-5-(4-(3-(4-chlorobenzyl)-2,3-dihydropyrido[4,3-f][1,4]oxazepin-4(5H)-yl)piperidin-1-yl)-4H-1,2,4-triazol-3-amine]
- IC50 (recombinant human AMCase): < 100 nM
- IC50 (recombinant human CHIT1): 1000 to 10000 nM
